Measurements from US8236848B2, “Diindolylmethane for the treatment of HPV infection” (BioResponse, L.L.C., priority 2001, dated 2012).

What was measured:
[1] = Urinary Diindolylmethane levels by GC-MS after a single oral dose; assay type: in vivo, human; details: for Urinary DIM: 75 mg oral dose (300 mg of 25% formulation), single individual
Method: The invention also provides a method for determining the urine level of DIM in a subject following oral administration of Diindolylmethane. In this method 300 mg or more of formulated DIM (75 mg or more of actual DIM) are taken with 8 ounces of water. Urine samples are obtained every 90 minutes for a period of 360 minutes. GC-MS operating conditions included were based on a published GC-MS analysis technique for DIM in urine (Sepkovic D W, Bradlow H L, Bell M, “Quantitative Determination of 3,3′-Diindolylmethane in the Urine of Individuals Receiving Indole-3-Carbinol” J. Nutrition (2002 in press). The following technique for analyzing DIM in urine samples was used: • 1. A 1 cc aliquot of urine for assay of diindolylmethane is mixed with 1 cc of sodium acetate buffer (pH 4.8) and 20 ul Beta-Glucuronidase from Helix Pomatia (110,200 units/ml: Sigma, St. Louis, Mo.). • 2. The solution is incubated at 40° C. for 24 hours. • 3. An internal standard of 4,4′dichlorodiindolylmethane is then added. • 4. The sample is then extracted in twice equal volume of chloroform and the sample vortexed and reduced to dryness under vacuum. • 5. The dried residue is dissolved in 20 uL of anhydrous pyridine and derivatized with 80 ul of N2O-bis-(timethyl-silyl)trifluoroacetamide (BFSTA) (Pierce Biochemical Co, Rockford, Ill.). The sample is heated to 100° C. for one hour. • 6. The derivatized sample is then injected into a Gas Chromatography Mass Spectrometer (GC-MS) in single ion monitoring mode recording results at a derivatized mass of 390. The following ions are monitored: m/z 390 (primary), 391,392 (confirmatory). Area for peak 390 is measured. • 7. Peaks are compared to a standard curve for pure diindoylylmethane in known concentrations as a standard. • 8. Creatinine in each 90 minute timed urine sample was measured by a standard Kinetic Alkaline Picrate (KAP) colormetric assay with results in mg of creatinine per cc of urine. • 9. Results obtained for DIM from the 1 cc aliquot of each timed urine sample are reported as nanograms of DIM per mg of Creatinine. This permits comparisons of urine samples of different water content in different timed samples eliminating the effects of changing hydration status of the human subject.
A related gas chromatography-mass spectrometry (GC-MS) method for the quantitation of Diindolylmethane in urine was developed. This technique is simpler, requiring less sample preparation but similar use of GC-MS analysis and provides results expressed as nanograms of Diindolylmethane per mg of Creatinine (ng DIM per mg Cre). Since production rates of Creatinine (Cre) are constant in an individual this technique allows comparison of urine samples from different times having differing water content. Sepkovic, D. W., Bradlow, H. L. Bell, M., Quantitative Determination of 3,3′-Diindolylmethane in the Urine of Individuals Receiving Indole-3-Carbinol, J. Nutrition (in press 2002).
A single individual was studied after taking 75 mg Diindolylmethane (300 mg of a 25% absorption-enhance formulation of Diindolylmethane) as a single dose after waiting 4 days since prior use of Diindolylmethane. Urine samples were collected every 90 minutes for a total of 360 minutes, frozen, and subsequently analyzed as described.

[2] = test system: cutaneous warts (verrucae vulgaris); assay: Oral Diindolylmethane with Pregnenolone for cutaneous warts (case three); assay type: in vivo, human; details: patient three; dose increased to maximum of 150 mg/day over 6 weeks
Method: Pregnenolone at 50 mg/day in a capsule form was added for immune enhancement.

[3] = test system: HPV-related cervical dysplasia; assay: Oral Diindolylmethane for HPV-related cervical dysplasia (case histories and open pilot study); details: four women, 112 mg/day actual Diindolylmethane
Text: Women with moderate to severe dyplasia on cervical biopsies volunteered for an open trial of oral Diindolylmethane supplementation.
Four women, meeting the criteria of moderate to severe HPV-related cervical dysplasia were included in a pilot study.

[4] = human, in vivo
Method: The subject is preferably fasting and plasma is preferred over serum. In this method 120 mg or more of formulated DIM (30 mg or more of actual DIM) are taken orally by a subject fasting for at least 4 hours along with 8 ounces of water. Blood samples are obtained on a timed basis between 120 and 180 minutes after ingesting the DIM. Samples obtained during this timeframe are analyzed by a Gas Chromatography Mass Spectrometry (GC-MS) technique. Circulating amounts of DIM during this timeframe are maximal levels following a single dose. […] The following steps describe the method for determining amounts of absorbed DIM in blood. • 1. […] The following ions are monitored: m/z 390 (primary), 391,392 (confirmatory). Area for peak 390 is measured. • 9. […]
For blood level studies adult subjects were studied in a fasting state. […] Sample analysis using a technique for GC-MS measurement of Diindolylmethane, involving acetonitrile extraction, silyation, and GC-MS quantitation was performed as adapted from the literature (Stresser, D. M., Bjeldanes, L. F., Bailey, G. S., et al., “The anticarcinogen 3,3′-Diindolylmethane is an inhibitor of cytochrome P-450”, J. Biochem. Toxicol., 10(4):191-201 (1995)) and described in section 4.2 above. […]

[5] = test system: verrucae involving the plantar skin; assay: Oral Diindolylmethane for childhood warts (case two); assay type: in vivo, human; details: child two; 75 mg/day (3 mg/kg/day)
Text: The usefulness of oral forms of Diindolylmethane in treating verrucous disease of childhood is illustrated by the case of C. B. The subject is a child with classic verrucae involving the plantar skin of one foot. The process began as a single wart, which was frozen with liquid nitrogen by a pediatrician. […] Within 2 months, however, a new wart recurred at the sight of the original scar. Upon recurrence the primary lesion measured approximately 0.75 cm in diameter but was now circled by a number of smaller satellite lesions surrounding the recurrent primary wart.
Treatment was initiated with 75 mg/day of Diindolylmethane in an absorbable formulation (300 mg total formula weight). With the patient weighing 25 kg, this provided 3 mg/kg/day of Diindolylmethane and 12 mg/kg/day of the formulation. […] There was no pain or scarring associated with the gradual resolution.

[6] = test system: cervical intraepithelial neoplasia (CIN); details: after 3 months on either 200 mg/day or 400 mg/day of I3C; 8 of 17; cited from earlier work
[7] = test system: Recurrent Laryngeal Papillomatosis (RRP); assay: Oral therapy of Recurrent Laryngeal Papillomatosis in a child (case one); assay type: in vivo, human; details: child A. L.; oral I3C 5-7 mg per kg, 6 months; no lengthening of intervals between surgical procedures
Method: The following describes oral Diindolylmethane therapy for the Recurrent Laryngeal Papillomatosis (RRP), a rare condition in which wart like lesions develop in and around the larynx and vocal cords in association with HPV. patient one is a child with RRP. They were diagnosed with RRP. Before Diindolylmethane therapy they had undergone 21 laryngoscopic surgical procedures for recurrent laryngeal papillomas compromising their airway. […] Tracheostomy was performed in 1998 to provide a more secure airway. Diindolylmethane in an absorbable formulation according to U.S. Pat. No. […] Surgical frequency increased immediately to two months.

laryngeal papillomatosis = details: cited from earlier work
[8] = dietary supplementation with I3C, laryngeal papillomatosis

Row | Compound | Urinary DIM ([1]; 90 minutes) [ng/mg Cre] | Urinary DIM ([1]; 180 minutes) [ng/mg Cre] | Urinary DIM ([1]; 270 minutes) [ng/mg Cre] | Urinary DIM ([1]; 360 minutes) [ng/mg Cre] | Plateau of urinary Diindolylmethane ([1]; 75 mg oral dose, around 180 minutes following oral dosing) [ng/mg Creatinine] | Side effects [2] | Side effects or adverse events [3] | Augmentation in Diindolylmethane blood levels from the low to high dose [4] | Side effects associated with the oral treatment [5] | Treated patients with normalized cervical biopsy [6] [%] | Clinical response of laryngeal papillomas [7] | Doses with neurologic and gastrointestinal toxicity (laryngeal papillomatosis; clinical use of I3C) | Disappearance of existing lesions (laryngeal papillomatosis; [8]) | Patients with cessation of papilloma growth (laryngeal papillomatosis; [8]) [%] | Maximal tolerated dose (laryngeal papillomatosis; gastrointestinal and central nervous system side effects on increasing the dose) [mg/kg]
1 | c1ccc2c(Cc3c[nH]c4ccccc34)c[nH]c2c1 [Diindolylmethane] | 2.6 | 3.82 | 3.30 | 2.50 | 3.5 | without side effects | no significant side effects or adverse events | more than 3 times | No side effects |  |  |  |  |  | 
2 | OCc1c[nH]c2ccccc12 [I3C, Indole-3-carbinol] |  |  |  |  |  |  |  |  |  | 50 | failed to produce clinical improvement | more than 400 mg per day | did not result in the disappearance of existing lesions in any patient | 33 | 5 to 7
